# Results taken from ChEMBL document CHEMBL1201862, “PubChem BioAssay data set” (2004).
#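 48-hour exposure; five concentrations; linearly interpolated endpoints. GI50 = concentration required for 50% inhibition of growth.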 Calls of active or inactive are those of the source. Cut-off read from the data, not from the text of the source: active = GI50 up to about 1.1 µM and inactive = higher.
# Key:
# Assay in all cases: DTP human tumour cell line panel, 48 h
# A498 = test system: A498
# EKVX = test system: EKVX
# HOP-62 = test system: HOP-62
# HT-29 = test system: HT-29
# Hs-578T = test system: Hs-578T
# LOX IMVI = test system: LOX IMVI
# NCI-H23 = test system: NCI-H23
# NCI-H522 = test system: NCI-H522
# OVCAR-4 = test system: OVCAR-4
# OVCAR-5 = test system: OVCAR-5
# PC-3 = test system: PC-3
# SF-539 = test system: SF-539
# SK-MEL-28 = test system: SK-MEL-28
# SNB-19 = test system: SNB-19
# T47D = test system: T47D
# U-251 = test system: U-251
# UACC-257 = test system: UACC-257
# UACC-62 = test system: UACC-62
# UO-31 = test system: UO-31
# BT-549 = test system: BT-549
Compound,GI50 (A498),GI50 (EKVX),GI50 (HOP-62),GI50 (HT-29),GI50 (Hs-578T),GI50 (LOX IMVI),GI50 (NCI-H23),GI50 (NCI-H522),GI50 (OVCAR-4),GI50 (OVCAR-5),GI50 (PC-3),GI50 (SF-539),GI50 (SK-MEL-28),GI50 (SNB-19),GI50 (T47D),GI50 (U-251),GI50 (UACC-257),GI50 (UACC-62),GI50 (UO-31),GI50 (BT-549)
CC(O)(/C=C/c1ccccc1)P(=O)(O)c1ccccc1 (configuration not stated),> 100 µM (inactive),> 100 µM (inactive),> 100 µM (inactive),> 100 µM (inactive),> 100 µM (inactive),> 100 µM (inactive),> 100 µM (inactive),> 100 µM (inactive),> 100 µM (inactive),> 100 µM (inactive),> 100 µM (inactive),> 100 µM (inactive),> 100 µM (inactive),> 100 µM (inactive),> 100 µM (inactive),> 100 µM (inactive),> 100 µM (inactive),> 100 µM (inactive),,
CC(=O)OCC(OC(C)=O)C(OC(C)=O)C(OC(C)=O)C(=O)CNn1c(-c2ccccc2Cl)nc2ccc(Br)cc2c1=O (configuration not stated),55.7 µM (inactive),> 100 µM (inactive),> 100 µM (inactive),96.4 µM (inactive),,82 µM (inactive),> 100 µM (inactive),33.2 µM (inactive),87.1 µM (inactive),> 100 µM (inactive),,> 100 µM (inactive),> 100 µM (inactive),81.1 µM (inactive),,87.9 µM (inactive),> 100 µM (inactive),30.6 µM (inactive),85.5 µM (inactive),
C=CCOCn1cnc2c(N)ncnc21,> 100 µM (inactive),> 100 µM (inactive),> 100 µM (inactive),> 100 µM (inactive),> 100 µM (inactive),> 100 µM (inactive),> 100 µM (inactive),,> 100 µM (inactive),> 100 µM (inactive),> 100 µM (inactive),> 100 µM (inactive),> 100 µM (inactive),> 100 µM (inactive),> 100 µM (inactive),> 100 µM (inactive),> 100 µM (inactive),> 100 µM (inactive),> 100 µM (inactive),
CCC1(CN(C)C)CC/C(=C\c2ccc(OC)c(OC)c2)C1=O (configuration not stated),88.7 µM (inactive),> 54.6 µM (inactive),> 100 µM (inactive),58.2 µM (inactive),,> 100 µM (inactive),> 100 µM (inactive),64.1 µM (inactive),> 100 µM (inactive),> 69.5 µM (inactive),,> 100 µM (inactive),> 100 µM (inactive),> 100 µM (inactive),,> 100 µM (inactive),> 100 µM (inactive),> 69.3 µM (inactive),> 100 µM (inactive),
C/C(=N\N=C(/S)N1CC2CCC(CC2)C1)c1cccc[n+]1[O-],18.3 µM (inactive),7.45 µM (inactive),12.6 µM (inactive),1.84 µM (inactive),18.4 µM (inactive),5.02 µM (inactive),16.6 µM (inactive),11.4 µM (inactive),2.46 µM (inactive),6.11 µM (inactive),11.7 µM (inactive),5.85 µM (inactive),5.2 µM (inactive),9.08 µM (inactive),22.6 µM (inactive),6.28 µM (inactive),7.59 µM (inactive),7.31 µM (inactive),3.12 µM (inactive),
c1ccc(Cc2cc(-c3ccccc3)[nH]n2)cc1,,10.6 µM (inactive),24.8 µM (inactive),11.2 µM (inactive),15.3 µM (inactive),15.1 µM (inactive),,16.7 µM (inactive),,20.6 µM (inactive),15.8 µM (inactive),,11.6 µM (inactive),23.2 µM (inactive),33.3 µM (inactive),13.2 µM (inactive),13.3 µM (inactive),14.4 µM (inactive),21.8 µM (inactive),
COc1ccc(-c2nc3ncccn3c2-c2ccc([S+](C)[O-])cc2)cc1 (configuration not stated),,,> 100 µM (inactive),> 100 µM (inactive),> 100 µM (inactive),> 100 µM (inactive),> 100 µM (inactive),,> 100 µM (inactive),> 100 µM (inactive),> 100 µM (inactive),> 100 µM (inactive),> 100 µM (inactive),> 100 µM (inactive),,> 100 µM (inactive),> 100 µM (inactive),54.7 µM (inactive),> 100 µM (inactive),> 100 µM (inactive)
CC(C)NC(=O)O/N=C1\CCC2[C@@H]3CC=C4C[C@@H](OC(=O)NC(C)C)CC[C@]4(C)C3CC[C@]12C (some centres not stated),6.89 µM (inactive),1.28 µM (inactive),6.53 µM (inactive),2.34 µM (inactive),,1.03 µM (active),1.18 µM (inactive),1.53 µM (inactive),1.38 µM (inactive),0.748 µM (active),,2.4 µM (inactive),1.59 µM (inactive),2.02 µM (inactive),,1.38 µM (inactive),0.685 µM (active),1.3 µM (inactive),1.01 µM (active),
CN(C)Cc1cc(C(=O)/C=C/c2ccc(Cl)c(Cl)c2)cc(CN(C)C)c1O,3.17 µM (inactive),8.36 µM (inactive),2.24 µM (inactive),1.24 µM (inactive),3.04 µM (inactive),0.716 µM (active),5.69 µM (inactive),1.56 µM (inactive),4.61 µM (inactive),8.83 µM (inactive),1.96 µM (inactive),2.77 µM (inactive),2.57 µM (inactive),2.56 µM (inactive),4.41 µM (inactive),3.08 µM (inactive),2.31 µM (inactive),,1.83 µM (inactive),
Cc1ccc(S(=O)(=O)NC2CCCCO2)cc1 (configuration not stated),> 100 µM (inactive),> 100 µM (inactive),> 100 µM (inactive),> 100 µM (inactive),,> 100 µM (inactive),> 100 µM (inactive),> 100 µM (inactive),> 100 µM (inactive),> 100 µM (inactive),,> 100 µM (inactive),> 100 µM (inactive),> 100 µM (inactive),,> 100 µM (inactive),> 100 µM (inactive),> 100 µM (inactive),> 100 µM (inactive),
CC(=O)/C=C/C=C(\C)CC/C=C(\C)CC(C)C,22 µM (inactive),37.3 µM (inactive),41.3 µM (inactive),30.1 µM (inactive),53.5 µM (inactive),18.3 µM (inactive),23.6 µM (inactive),17.6 µM (inactive),42.1 µM (inactive),61.2 µM (inactive),38.2 µM (inactive),21.7 µM (inactive),33.9 µM (inactive),42.4 µM (inactive),14.6 µM (inactive),25.4 µM (inactive),23.3 µM (inactive),18.1 µM (inactive),76.6 µM (inactive),
CC1C(=O)CCC1C(Sc1ccccc1)(Sc1ccccc1)Sc1ccccc1 (configuration not stated),23.2 µM (inactive),55.6 µM (inactive),37.4 µM (inactive),30.3 µM (inactive),,21 µM (inactive),22.5 µM (inactive),11.1 µM (inactive),18.8 µM (inactive),> 100 µM (inactive),,18.7 µM (inactive),22.1 µM (inactive),26.5 µM (inactive),,33.8 µM (inactive),31.5 µM (inactive),18 µM (inactive),1.32 µM (inactive),
Cc1ccc(C)c(NC(=O)c2cccc([N+](=O)[O-])c2O)c1,24 µM (inactive),29.5 µM (inactive),15.8 µM (inactive),26.1 µM (inactive),,16.7 µM (inactive),16.3 µM (inactive),23.3 µM (inactive),13.2 µM (inactive),87.7 µM (inactive),,32.3 µM (inactive),27.1 µM (inactive),34.4 µM (inactive),,23.9 µM (inactive),16.1 µM (inactive),5.74 µM (inactive),16.5 µM (inactive),
O=C(CCc1nnc2s/c(=C\c3ccccc3[N+](=O)[O-])c(=O)n12)Nc1cc(Cl)c(Cl)cc1Cl,20.4 µM (inactive),37.9 µM (inactive),23.1 µM (inactive),35.2 µM (inactive),,20.8 µM (inactive),33.2 µM (inactive),38.3 µM (inactive),14.7 µM (inactive),34.1 µM (inactive),,21.1 µM (inactive),92.9 µM (inactive),30.1 µM (inactive),,16.9 µM (inactive),63.4 µM (inactive),40.4 µM (inactive),31.6 µM (inactive),
O=C1NC(=O)C2C1N(Cc1ccccc1)C(=O)N2Cc1ccccc1 (configuration not stated),> 100 µM (inactive),> 100 µM (inactive),> 100 µM (inactive),> 100 µM (inactive),,> 100 µM (inactive),> 100 µM (inactive),> 100 µM (inactive),> 100 µM (inactive),> 100 µM (inactive),,> 100 µM (inactive),> 100 µM (inactive),> 100 µM (inactive),,> 100 µM (inactive),> 100 µM (inactive),> 100 µM (inactive),> 100 µM (inactive),
O=C1/C(=C/c2cccs2)NC(=S)N1CN1CCCCC1,> 100 µM (inactive),55 µM (inactive),> 100 µM (inactive),39.9 µM (inactive),> 100 µM (inactive),33 µM (inactive),> 100 µM (inactive),71 µM (inactive),20.7 µM (inactive),> 100 µM (inactive),98.2 µM (inactive),,> 100 µM (inactive),29.7 µM (inactive),,85.9 µM (inactive),,55.8 µM (inactive),80.2 µM (inactive),
